Laboratory results reported in patent publication US20060247318A1, “Small molecule inhibitors of STAT3 and the uses thereof” (priority 2005, published 2006).

Legend:
Stat3 [1] = assay: Electrophoretic mobility shift assay, MDA-MB-435s nuclear extract; format: biochemical; settings: 30 μM, 30 min
Experimental: (§1) FIGS. 3A-3B show the inhibition of Stat3 DNA binding activity and Stat3-regulated anti-apoptotic factors by STA-21. (A) MDA-MB-435s cell nuclear extract was incubated with 30 μM STA-21 for 30 min at room temperature, and then incubated with r-^32P-ATP labeled consensus binding sequence for 20 min at room temperature. The reaction mixtures were resolved on 8% polyacrylamide gel. (B) The lysates from MDA-MB-468 cells treated with the indicated concentrations of STA-21 for 48 h were resolved on 10% SDS-PAGE, then immunoblotted with antibodies as indicated.
(§2) It was next examined whether or not STA-21 could reduce Stat3 DNA binding activity using electrophoretic mobility shift assays as reported (Turkson et al., J. Biol. Chem. 276:45443 (2001)). In MDA-MB-435s breast carcinoma cells with constitutive Stat3 signaling, high Stat3 DNA binding activity was observed (FIG. 3A).

SV40 luciferase reporter = SV40 luciferase reporter (control lacking Stat3 binding sites) in MDA-MB-435s clones; format: cell-based; settings: reporter without Stat3 DNA binding site, 20 μM, 48 h
Experimental: (§3) FIGS. 2A-2B show the inhibition of Stat3 dependent luciferase activity in cancer cells by STA-21. (A) The clone from Caov-3 carcinoma cells stably transfected with pLucTKS3 Stat3-dependent luciferase reporter was used for initial Sat3 small molecule inhibitor screening. The cloned cells were treated with 20 μM of STA-21 as well as other small molecule compounds for 48 h, then the cells were harvested for luciferase activity analysis. (B) The clones from MDA-MB-435s cells stably transfected with pLucTKS3 Stat3-dependent luciferase reporter or SV40 luciferase reporter were treated with 20 μM of STA-21 for 48 h. Luciferase activity was measured using a Promega luciferase kit according to the manufacturer's instructions. The results were based on the averages and standard deviations from three separate experiments.
(§4) The 100 selected inhibitors were evaluated using a Stat3 luciferase reporter system. Both MDA-MB-435s breast carcinoma cells and Caov-3 ovarian carcinoma cells express constitutively activated Stat3 (Song et al., Int. J. Oncol. 24:1017 (2004); Song et al., Biochem. Biophys. Res. Commun. 314:143 (2004)). […] The selected clones were exposed to Stat3 inhibitors at a final concentration of 20 μM for 48 h and luciferase activity was measured using a Promega Luciferase kit (Madison, Wis.).

Stat1 = biological target: T1, Stat1 (Homo sapiens, UniProt P42224); assay: Electrophoretic mobility shift assay, MDA-MB-435s cells; format: biochemical
T1 construct: MDA-MB-435s cell nuclear extract was incubated with 30 μM STA-21 for 30 min at room temperature; endogenous in cells; host or cells: MDA-MB-435s nuclear extract
T1 sequence (P42224 1-750): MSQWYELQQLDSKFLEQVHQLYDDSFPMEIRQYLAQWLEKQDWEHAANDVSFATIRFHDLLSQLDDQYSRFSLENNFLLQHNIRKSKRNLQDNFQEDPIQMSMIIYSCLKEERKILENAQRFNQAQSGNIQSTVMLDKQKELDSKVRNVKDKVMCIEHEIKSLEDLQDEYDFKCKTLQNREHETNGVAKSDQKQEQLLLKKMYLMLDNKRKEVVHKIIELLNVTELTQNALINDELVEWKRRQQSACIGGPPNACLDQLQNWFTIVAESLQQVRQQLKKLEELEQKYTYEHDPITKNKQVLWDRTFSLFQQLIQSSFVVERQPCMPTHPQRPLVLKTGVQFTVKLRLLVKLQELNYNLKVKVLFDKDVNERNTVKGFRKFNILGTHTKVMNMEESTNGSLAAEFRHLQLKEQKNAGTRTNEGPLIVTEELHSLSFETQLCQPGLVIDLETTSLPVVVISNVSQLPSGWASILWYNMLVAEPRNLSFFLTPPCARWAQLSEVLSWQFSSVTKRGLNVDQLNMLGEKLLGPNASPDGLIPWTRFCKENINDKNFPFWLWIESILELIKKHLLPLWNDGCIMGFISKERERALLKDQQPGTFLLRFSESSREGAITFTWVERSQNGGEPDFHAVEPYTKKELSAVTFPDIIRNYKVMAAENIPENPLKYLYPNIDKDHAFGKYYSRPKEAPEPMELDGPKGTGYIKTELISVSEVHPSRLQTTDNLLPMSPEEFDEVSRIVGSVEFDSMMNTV

Stat3 [2] = assay: Stat3-dependent luciferase reporter (pLucTKS3) in Caov-3 cloned cells; format: cell-based; settings: pLucTKS3, 20 μM, 48 h
Experimental: as §3, §4

Stat3 [3] = assay: Stat3-dependent luciferase reporter (pLucTKS3) in MDA-MB-435s cloned cells; format: cell-based; settings: pLucTKS3, 20 μM, 48 h
Experimental: as §3, §4

Stat5 = assay: Electrophoretic mobility shift assay, MDA-MB-435s cells; format: biochemical
Bcl-XL = assay: Western blot of MDA-MB-468 cell lysates; format: cell-based; settings: MDA-MB-468 cells, 20 or 30 μM, 48 h
Experimental: as §1, §2

AKT (P-AKT) = assay: Western blot of MDA-MB-468 cell lysates; format: cell-based; settings: MDA-MB-468 cells, 48 h
Experimental: as §1, §2

ERK (P-ERK) = assay: Western blot of MDA-MB-468 cell lysates; format: cell-based; settings: MDA-MB-468 cells, 48 h
Experimental: as §1, §2

Stat3 [4] = assay: Co-immunoprecipitation of Stat3-Flag and Stat3-HA (dimerization) in MDA-MB-435s cells; format: cell-based; settings: 20 μM, 24 h
Source text: (A) Untransfected and untreated MDA-MB-435s cells. (B and E) Cells cotransfected with pCMV-Stat3-Flag and pCMV-Stat3-HA plasmids were immunostained with anti-flag IgG-Rhodamine. (B) Untreated cells and (E) STA-21 treated cells. (C and F) Transfected cells were immunostained with anti-HA IgG-FITC. (C) Untreated cells and (F) STA-21 treated cells. (D and G) Transfected cells were co-immunostained with both anti-HA IgG-FITC and anti-flag IgG-Rhodamine. […] (H) MDA-MB-435s cells were cotransfected with pCMV-Stat3-Flag and pCMV-Stat3-HA plasmids and were exposed to 20 μM STA-21 for 24 h, then cell lysates were immunoprecipitated with anti-HA or anti-Flag antibodies. Immunoprecipitates were resolved on 10% SDS-PAGE and then immunoblotted with anti-HA, anti-Flag or anti-Stat3 antibodies.
The effect of STA-21 on Stat3 in vivo dimerization in breast cancer MDA-MB-435s cells was also investigated. After the exposure to 20 μM STA-21 for 24 h, the cells were harvested and the lysates from the cells expressing Stat3-Flag and Stat3-HA tagged proteins were immunoprecipitated with an anti-Flag or anti-HA antibody, respectively. The immunoprecipitated reaction mixtures were resolved on a 10% SDS-PAGE and immunoblotted with an anti-HA, anti-Flag, or anti-Stat3 antibody, respectively.

[5] = system: breast cancer cells that contain constitutively active Stat3; assay: Cell viability assays using MTT; format: cell-based
Source text: (§5) Since STA-21 inhibited Stat3-dependent luciferase and DNA binding activities, it was next examined whether STA-21 inhibited the growth and survival of breast cancer cells with constitutive Stat3 signaling. […] The Stat3 status of the cell lines was confirmed by measurement of phosphorylated Stat3 (FIG. 4A).

MCF7 = assay: Sub-G1 flow cytometry (apoptotic cells), survival; format: cell-based; settings: MCF7, no constitutive Stat3 signaling, 20 μM or 30 μM, 48 h
Experimental: (§6) (A) The phosphorylation of Stat3 at Y-705 in different cell lines. (B) The cell lines were treated with STA-21 at concentrations as indicated for 48 h, and then cells were harvested and analyzed for the Sub-G1 profile that indicated apoptotic cells on a FACScan Flow Cytometer (Becton Dickinson, San Jose, Calif.). The results were based on the averages and standard deviations from three separate experiments.
as §5

MDA-MB-468 = assay: Sub-G1 flow cytometry (apoptotic cells), survival; format: cell-based; settings: MDA-MB-468, constitutively activated Stat3, 20 μM or 30 μM, 48 h
Experimental: as §6, §5

MDA-MB-453 = assay: Sub-G1 flow cytometry (apoptotic cells), survival; format: cell-based; settings: MDA-MB-453, no constitutive Stat3 signaling, 20 μM or 30 μM, 48 h
Experimental: as §6, §5

[6] = system: human skin fibroblasts (HSF); assay: Sub-G1 flow cytometry (apoptotic cells), survival; format: cell-based; settings: no constitutive Stat3 signaling, 20 μM or 30 μM, 48 h
Experimental: as §6, §5

MDA-MB-435s = assay: Sub-G1 flow cytometry (apoptotic cells), survival; format: cell-based; settings: constitutively activated Stat3, 20 μM or 30 μM, 48 h
Experimental: as §6, §5

MDA-MB-231 = assay: Sub-G1 flow cytometry (apoptotic cells), survival; format: cell-based; settings: MDA-MB-231, constitutively activated Stat3, 20 μM or 30 μM, 48 h
Experimental: as §6, §5

C[C@@H]1CC(=O)c2c(ccc3c2C(=O)c2cccc(O)c2C3=O)C1 [STA-21]
Stat3 DNA binding activity (Stat3 [1]): inhibited Stat3 DNA binding activity | luciferase activity, SV40 luciferase reporter (SV40 luciferase reporter): did not affect luciferase activity | Stat1 DNA binding activity (Stat1): not Stat1 and Stat5 DNA binding activity | effect on Stat3 induced luciferase activity (Stat3 [2]): remarkable inhibitory effect | luciferase activity (Stat3 [3]): decreased more than five fold | Stat5 DNA binding activity (Stat5): not Stat1 and Stat5 DNA binding activity | downstream anti-apoptotic effector Bcl-XL, Western blot (Bcl-XL): inhibited the downstream anti-apoptotic effector Bcl-XL | phosphorylation of AKT (P-AKT) (AKT (P-AKT)): did not affect the phosphorylation | phosphorylation of ERK (P-ERK) (ERK (P-ERK)): did not affect the phosphorylation | Stat3 dimerization between Stat3-Flag and Stat3-HA proteins (Stat3 [4]): abrogated Stat3 dimerization | growth and survival, cell viability (MTT) combined with sub-G1 data [5]: strong potential to inhibit the growth and survival | inhibition of survival (sub-G1) (MCF7): minimal inhibitory effect | inhibition of survival (accumulation of cells in sub-G1 phase) (MDA-MB-468): remarkable inhibitory activity | inhibition of survival (sub-G1) (MDA-MB-453): minimal inhibitory effect | inhibition of survival (sub-G1) [6]: minimal inhibitory effect | inhibition of survival (accumulation of cells in sub-G1 phase) (MDA-MB-435s): remarkable inhibitory activity | inhibition of survival (accumulation of cells in sub-G1 phase) (MDA-MB-231): remarkable inhibitory activity
